Assay [1] in a line: Cytotoxicity against human Ovarian cancer cells. Particulars: Cancer cell lines. The class given is functional, cell-based.
Assay [2] in a line: Cytotoxicity against human melanoma cells. Type of assay: functional, cell-based. The settings on record: Melanoma cell.

For the compound `CN(C)CCN1C(=O)c2cccc3cc4cc(O)ccc4c(c23)C1=O`, the pIC50 came to 7.66 in assay [1] and 8.34 in assay [2].

Turning to `CC(=O)Nc1ccc2c3c4c(cccc4cc2c1)C(=O)N(CCN(C)C)C3=O`, the pIC50 in assay [1] turned out to be 7.89; in assay [2] it was 7.22.

`CN(C)CCN1C(=O)c2c(N)ccc3cc4ccccc4c(c23)C1=O`: the pIC50 in assay [1] worked out at 7.92; in assay [2], 8.02.

Turning to `CN(C)CCN1C(=O)c2c(Cl)ccc3cc4ccccc4c(c23)C1=O`, the figures for the pIC50 in assay [1] and in assay [2] were 6.75 and 6.89, respectively.

On to `CN(C)CCN1C(=O)c2cccc3cc4ccc(N)cc4c(c23)C1=O`, for which the values for the pIC50 in assay [1] and in assay [2] were 7.7 and 7.2, respectively.

Consider `CC(=O)Nc1ccc2cc3cccc4c3c(c2c1)C(=O)N(CCN(C)C)C4=O`, for which the pIC50 in assay [1] came out at 7.31; in assay [2], 7.01.

In the case of `CN(C)CCN1C(=O)c2cccc3cc4c(N)cccc4c(c23)C1=O`, the pIC50 in assay [1] amounted to 5.02; in assay [2], 4.69.

With `CN(C)CCN1C(=O)c2cccc3cc4ccc(O)cc4c(c23)C1=O`, the pIC50 in assay [1] was 5.72; in assay [2], 5.92.

Consider `CN(C)CCN1C(=O)c2cccc3cc4c(O)cccc4c(c23)C1=O`, for which the negative logarithm of the IC50 (pIC50) in assay [1] is 6.67; in assay [2], 6.57.

`CN(C)CCN1C(=O)c2cccc3cc4ccc(F)cc4c(c23)C1=O`: the negative logarithm of the IC50 (pIC50) in assay [1] was found to be 8.17; in assay [2], 7.8.

As to `CN(C)CCN1C(=O)c2cccc3cc4c(I)cccc4c(c23)C1=O`, the pIC50 turned out to be 5.68 in assay [1] and 6.08 in assay [2].

Take `CN(C)CCN1C(=O)c2cccc3cc4ccc(C#N)cc4c(c23)C1=O`: the figures for the pIC50 in assay [1] and in assay [2] were 7.92 and 7.96, respectively.

Regarding `CN(C)CCN1C(=O)c2cccc3cc4ccc(-c5ccccc5)cc4c(c23)C1=O`, the pIC50 turned out to be 6.46 in assay [1] and 5.73 in assay [2].

In the case of `CN(C)CCN1C(=O)c2c(NC(=O)C(C)(C)C)ccc3cc4ccccc4c(c23)C1=O`, the pIC50 in assay [1] was determined as 6.18; in assay [2], 5.06.

With `CCOc1ccc2cc3cccc4c3c(c2c1)C(=O)N(CCN(C)C)C4=O`, the pIC50 came to 7.2 in assay [1] and 7.12 in assay [2].

For `CN(C)CCN1C(=O)c2cccc3cc4cc(N)ccc4c(c23)C1=O`, the figures for the pIC50 in assay [1] and in assay [2] were 7.85 and 7.35, respectively.

As for `CN(C)CCN1C(=O)c2cccc3cc4cccc(N)c4c(c23)C1=O`, the pIC50 in assay [1] was determined as 5.76; in assay [2] it was 6.02.

`CN(C)CCN1C(=O)c2cccc3cc4c([N+](=O)[O-])cccc4c(c23)C1=O`: the pIC50 in assay [1] is 7.3; in assay [2], 7.42.

In the case of `CN(C)CCN1C(=O)c2cccc3cc4cccc(Cl)c4c(c23)C1=O`, the results for the pIC50 in assay [1] and in assay [2] were 5.05 and 5.69, respectively.

`CN(C)CCN1C(=O)c2cccc3cc4cccc([N+](=O)[O-])c4c(c23)C1=O`: the pIC50 in assay [1] was found to be 6.65; in assay [2], 7.13.

Consider `CN(C)CCN1C(=O)c2cccc3cc4ccc(Cl)cc4c(c23)C1=O`, for which the pIC50 in assay [1] worked out at 7.11; in assay [2], 7.19.

`CN(C)CCN1C(=O)c2cccc3cc4cc(Cl)ccc4c(c23)C1=O`: the pIC50 in assay [1] was found to be 6.64; in assay [2], 7.05.

For the compound `CN(C)CCN1C(=O)c2cccc3cc4ccc(I)cc4c(c23)C1=O`, the pIC50 in assay [1] came out at 6.75; in assay [2] it was 6.2.

With `COc1cccc2c3c4c(cccc4cc12)C(=O)N(CCN(C)C)C3=O`, the pIC50 in assay [1] and in assay [2] was 7.28 throughout.

In the case of `CC(=O)Nc1cccc2c3c4c(cccc4cc12)C(=O)N(CCN(C)C)C3=O`, the results for the negative-log IC50 (pIC50) in assay [1] and in assay [2] were 5.7 and 5.92, respectively.

In the case of `CC(=O)Nc1ccc2cc3ccccc3c3c2c1C(=O)N(CCN(C)C)C3=O`, the pIC50 was 6.21 in assay [1] and 6.01 in assay [2].

`CC(=O)Nc1cccc2cc3cccc4c3c(c12)C(=O)N(CCN(C)C)C4=O`: the pIC50 in assay [1] and in assay [2] was 5.61 in each case.

With `CC(C)C(=O)Nc1ccc2cc3cccc4c3c(c2c1)C(=O)N(CCN(C)C)C4=O`, the pIC50 in assay [1] came to 6.48; in assay [2], 6.26.

In the case of `CN(C)CCNc1ccc2cc3ccccc3c3c2c1C(=O)N(CCN(C)C)C3=O`, the results for the pIC50 in assay [1] and in assay [2] were 6.24 and 6.53, respectively.

In the case of `CN(C)CCN1C(=O)c2cccc3cc4ccc([N+](=O)[O-])cc4c(c23)C1=O`, the pIC50 was 7.64 in assay [1] and 7.44 in assay [2].

Consider `CN(C)CCN1C(=O)c2cccc3cc4c(Cl)cccc4c(c23)C1=O`, for which the figures for the pIC50 in assay [1] and in assay [2] were 7.41 and 7.11, respectively.

On to `Cc1ccc2cc3ccccc3c3c2c1C(=O)N(CCN(C)C)C3=O`, for which the values for the pIC50 in assay [1] and in assay [2] were 6.91 and 6.75, respectively.

Take `Cc1ccc2cc3cccc4c3c(c2c1)C(=O)N(CCN(C)C)C4=O`: the pIC50 in assay [1] came out at 7.17; in assay [2], 7.09.

On to `COc1ccc2cc3ccccc3c3c2c1C(=O)N(CCN(C)C)C3=O`, for which the pIC50 in assay [1] came out at 6.3; in assay [2], 6.74.

In the case of `COc1ccc2cc3cccc4c3c(c2c1)C(=O)N(CCN(C)C)C4=O`, the pIC50 turned out to be 7.11 in assay [1] and 7.28 in assay [2].

`CN(C)CCN1C(=O)c2c(O)ccc3cc4ccccc4c(c23)C1=O`: the pIC50 in assay [1] is 4.83; in assay [2], 5.12.

Regarding `CN(C)CCN1C(=O)c2cccc3cc4cccc(O)c4c(c23)C1=O`, the pIC50 in assay [1] was 5.72; in assay [2] it was 6.27.

On to `COc1ccc2c3c4c(cccc4cc2c1)C(=O)N(CCN(C)C)C3=O`, for which the pIC50 in assay [1] stood at 6.27; in assay [2] it was 6.79.

For the compound `CN(C)CCN1C(=O)c2cccc3cc4ccccc4c(c23)C1=O` [AZONAFIDE], the pIC50 was 7.24 in assay [1] and 7.15 in assay [2].

These data come from ChEMBL document CHEMBL3045058, “Comparative QSAR and pharmacophore modeling of substituted 2-[2-(dimethylamino) ethyl]-1, 2-dihydro-3H-dibenz[de,h]isoquinoline-1,3-diones derivatives as anti-tumor activity” (Med Chem Res, 2013).
